According to patent publication US20090246134A1, “COMPOSITIONS AND METHODS FOR MODULATING GATED ION CHANNELS” (PainCeptor Pharma Corporation, priority 2007, published 2009):

Target: T1, ASIC1a (Homo sapiens, UniProt P78348)
T1 sequence (P78348 1-528): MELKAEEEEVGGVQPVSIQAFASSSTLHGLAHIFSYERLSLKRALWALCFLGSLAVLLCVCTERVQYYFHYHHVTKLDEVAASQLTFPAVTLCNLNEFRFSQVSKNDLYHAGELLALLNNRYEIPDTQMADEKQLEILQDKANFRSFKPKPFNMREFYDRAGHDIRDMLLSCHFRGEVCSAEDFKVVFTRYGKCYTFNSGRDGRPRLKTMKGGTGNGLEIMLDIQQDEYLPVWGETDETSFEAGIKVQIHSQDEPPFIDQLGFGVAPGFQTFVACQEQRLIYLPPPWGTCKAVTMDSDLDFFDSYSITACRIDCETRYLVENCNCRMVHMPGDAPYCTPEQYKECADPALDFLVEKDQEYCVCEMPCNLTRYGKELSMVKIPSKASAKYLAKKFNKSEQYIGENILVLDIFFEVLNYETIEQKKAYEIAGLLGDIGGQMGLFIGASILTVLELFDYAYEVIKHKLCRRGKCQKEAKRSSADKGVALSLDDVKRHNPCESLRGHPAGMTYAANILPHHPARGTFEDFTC
Assay: Whole cell patch clamp in heterologous expression system (CHO cells)
Assay type: cell-based
Design: expressed in transfected cells; host or cells: CHO cells
Protocol: Another example of an in vitro assessment method consists of using mammalian heterologous expression systems, which are known to the skilled in the art, and include a variety of mammalian cell lines such as COS, HEK, e.g., HEK293 and/or CHO, cells. Cell lines are transfected with gated ion channel(s) and used to perform electrophysiology as follows:
All experiments are performed at room temperature (20-25° C.) in voltage clamp using conventional whole cell patch clamp methods (Neher, E., et al. (1978) Pfluegers Arch 375:219-228).
The amplifier used is the EPC-9 (HEKA-electronics, Lambrect, Germany) run by a Macintosh G3 computer via an ITC-16 interface. Experimental conditions are set with the Pulse-software accompanying the amplifier. Data is low pass filtered and sampled directly to hard-disk at a rate of 3 times the cut-off frequency.
Pipettes are pulled from borosilicate glass using a horizontal electrode puller (Zeitz-lnstrumente, Augsburg, Germany). The pipette resistances are 2-3 MOhms in the salt solutions used in these experiments. The pipette electrode is a chloridized silver wire, and the reference is a silver chloride pellet electrode (In Vivo Metric, Healdsburg, USA) fixed to the experimental chamber. The electrodes are zeroed with the open pipette in the bath just prior to sealing.
Coverslips with the cells are transferred to a 15 μl experimental chamber mounted on the stage of an inverted microscope (IMT-2, Olympus) supplied with Nomarski optics. Cells are continuously superfused with extracellular saline at a rate of 2.5 ml/min. After giga-seal formation, the whole cell configuration is attained by suction. The cells are held at a holding voltage of −60 mV and at the start of each experiment the current is continuously measured for 45 s to ensure a stable baseline. […] Current amplitudes are measured at the peak of the responses, and effect of the compounds is calculated as the amplitude at compound equilibrium divided by the amplitude of the current evoked by the pulse just before the compound was included. […]

potency relative to amiloride on human ASIC1a pH-evoked response: about 100 fold
Structure (SMILES): COc1ccc(F)cc1-c1cc2c(c3c1CCN(C)C3)NC(=O)C2=NO [Compound A, 5-(5-fluoro-2-methoxyphenyl)-6,7,8,9-tetrahydro-3-(hydroxyimino)-8-methyl-1H-pyrrolo[3,2-h]isoquinoline-2(3H)-one]
human ASIC1a pH-evoked response: reduce the human ASIC1a pH-evoked response in CHO cells in a dose-dependent manner
